Test results taken from patent publication US9271948B2, “Agent for improving vesicourethral dyssynergia” (TAIHO PHARMACEUTICAL CO., LTD., priority 2013, dated 2016).

Key:
Format in all cases: in vivo
[1] = test system: dysuria model rat (STZ-treated female Wistar rats); test: Effects of cholinergic agent and α1 blocker on vesicourethral dyssynergia of dysuria model rat (Comparative Example 2); settings: STZ model four weeks after preparation; bethanechol 1 mg/kg i.v., tamsulosin 0.3 mg/kg i.v.; under urethane anesthesia; vs control (physiological saline)
Experimental: The effects of a cholinergic agent (detrusor contracting agent: bethanechol) and an al blocker (urethra relaxation agent: tamsulosin) on vesicourethral dyssynergia were evaluated.
The dysuria models in the present example were prepared by treating 10-week-old female Wistar rats with STZ (65 mg/kg, i.p.). The Sham group was prepared by treating the rats with a citric acid buffer solution instead of STZ. Four weeks after the preparation of the models, the intravesical and urethral pressure was measured under urethane anesthesia, thereby evaluating the effects of the test drugs (vehicle: physiological saline solution, bethanechol 1 mg/kg i.v., and tamsulosin 0.3 mg/kg i.v.) with regard to the cooperation of the bladder and the urethra.

[2] = test system: dysuria model rat (STZ-treated female Wistar rats); test: Effect of ameliorating vesicourethral dyssynergia in dysuria model rat (Test Example 1); settings: STZ 65 mg/kg i.p. model; 30 mg/kg p.o. twice a day for four weeks starting four weeks after model preparation; measured under urethane anesthesia; control (6% Gelucire) 3.7±0.7
Experimental: The effect of 3-(15-hydroxypentadecyl)-2,4,4-trimethyl-2-cyclohexene-1-one (hereinafter referred to as “Compound 1 of the present invention”) on vesicourethral dyssynergia was evaluated.
The dysuria models in this example were prepared by treating 10-week-old female Wistar rats with streptozotocin (hereinafter referred to as STZ; in an amount of 65 mg/kg, i.p.). The Sham group was prepared by treating the rats with a citric acid buffer solution instead of STZ. The test drugs (vehicle: 6% Gelucire, Compound 1 of the present invention 30 mg/kg) were orally administered to each group after four weeks from the preparation of the models (at a time dysuria is assumed to be developed) twice a day for four weeks. On the day following the final administration, the intravesical and urethral pressure was measured under urethane anesthesia, thereby evaluating the cooperation of the bladder and the urethra.
Further, in contrast to the control group receiving vehicle (6% Gelucire) having a time lag of 3.7±0.7 seconds, the time lag in the group receiving Compound 1 of the present invention was reduced to 2.0±0.4 seconds, showing a significant effect of ameliorating vesicourethral dyssynergia.

[3] = test system: dysuria model rat (STZ-treated female Wistar rats); test: Effect on maximum voiding quantity in dysuria model rat (Test Example 2); settings: 30 mg/kg p.o. twice a day for four weeks, under urethane anesthesia, Sham 1.45 ± 0.14, Control 2.25 ± 0.68, *p < 0.05 vs. control
Experimental: The dysuria models in this example were prepared in the same manner as in Test Example 1 by treating 10-week-old female Wistar rats with STZ (65 mg/kg, i.p.). The test drugs (vehicle: 6% Gelucire, Compound 1 of the present invention 30 mg/kg) were orally administered to each group after four weeks from the preparation of the models (at a time dysuria is assumed to be developed) twice a day for four weeks. On the day following the final administration, the maximum voiding quantity was measured under urethane anesthesia.

[4] = test system: model rat having spinal cord injury (female Wistar rats); test: Effect on voiding dysfunction based on vesicourethral dyssynergia in spinal cord injury model rat (Test Example 3); settings: spinal cord injury model (Th8-9); 250 mg/kg p.o. once a day for four weeks; vs control group (6% Gelucire)
Experimental: The effect of Compound 1 of the present invention on dysuria was evaluated using a model rat having spinal cord injury, which is a typical disease causing dysuria due to vesicourethral dyssynergia.
The dysuria models in this example were prepared by placing a 40 g weight on the spinal cord in the eighth to ninth thoracic vertebrae (Th8-9) of 7-week-old female Wistar rats for 30 minutes.
The test drugs (vehicle: 6% Gelucire, Compound 1 of the present invention 250 mg/kg) were orally administered to each group from the day following the preparation of the models once a day for four weeks. On the day following the final administration, cystometry was performed in a wakeful state, thereby evaluating the voiding function (micturition efficiency).

Row | Structure (SMILES) | effect on extension of the time lag between the bladder contraction and the urethra relaxation [1] | time lag between the bladder contraction and the urethra relaxation [2] [s] | Maximum voided volme [3] | micturition efficiency (cystometry in a wakeful state) [4]
1 | CC(C[N+](C)(C)C)OC(N)=O (centres unmarked) [Bethanechol, bethanechol] | no effects |  |  | 
2 | CC1=C(CCCCCCCCCCCCCCCO)C(C)(C)CCC1=O [Compound 1 of the present invention, 3-(15-hydroxypentadecyl)-2,4,4-trimethyl-2-cyclohexene-1-one] |  | 2.0 ± 0.4 | 4.44 ± 0.85* mL | significant increase in micturition efficiency
3 | CCOc1ccccc1OCCN[C@H](C)Cc1ccc(OC)c(S(N)(=O)=O)c1 [tamsulosin] | no effects |  |  | 
